Laboratory results reported in US20260217660A1, “INHIBITORS OF ACTIVIN RECEPTOR TYPE I (ACVRI) AND ACTIVIN RECEPTOR LIKE TYPE I (ACVRLI), AND METHODS USING SAME” (Baylor College of Medicine, priority 2023, published 2026).
Changes are numbered by the printed parent chain. “And” between values parts separate entries of the source, which are not always exact repeats. Equal entries are not always repeated.

Tests used:
ACVR1^WT = molecular target: T1, ACVR1^WT (Homo sapiens, UniProt Q04771); experiment: Promega NanoBRET live-cell target engagement, ACVR1; type: cell-based; conditions: in cellulo; NI = No inhibition at 40 μM
T1 sequence (Q04771 21-509): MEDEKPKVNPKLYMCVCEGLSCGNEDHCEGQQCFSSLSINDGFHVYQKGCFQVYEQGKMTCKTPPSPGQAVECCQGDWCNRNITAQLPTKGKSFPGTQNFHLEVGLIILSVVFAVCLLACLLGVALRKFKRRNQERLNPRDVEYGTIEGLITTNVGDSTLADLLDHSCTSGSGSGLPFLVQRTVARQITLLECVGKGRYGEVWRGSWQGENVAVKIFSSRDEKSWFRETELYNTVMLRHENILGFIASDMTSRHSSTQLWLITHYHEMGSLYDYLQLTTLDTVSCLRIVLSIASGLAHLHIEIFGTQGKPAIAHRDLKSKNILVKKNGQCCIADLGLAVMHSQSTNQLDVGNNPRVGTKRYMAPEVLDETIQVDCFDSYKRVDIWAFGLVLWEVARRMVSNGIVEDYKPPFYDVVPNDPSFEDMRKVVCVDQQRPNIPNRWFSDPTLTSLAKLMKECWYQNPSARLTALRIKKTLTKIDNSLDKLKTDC
From the text: (§1) The Promega NanoBRET target engagement system involves cell-based competitive displacement of a fluorescent NanoBRET tracer bound reversibly to a NanoLuc fusion protein. Test compounds displace the tracer dependent on their affinity for the target and reduce […] the NanoBRET signal. […]

[1] = Metabolic stability in human liver microsomes; type: in vitro ADME; conditions: some cells add hours in brackets
From the text: (§2) Exemplary compounds of the present disclosure have been evaluated for metabolic stability in mouse and human liver microsomes.

[2] = system: BMP2-induced luciferase activity in 293T-BRE-reporter cells; experiment: BMP2-induced luciferase reporter activity in 293T-BRE reporter cells; type: cell-based; conditions: 30 min pre-treatment, 5 ng/ml BMP2, 6 hours
Experimental: BMP2-dependent luciferase reporter activation was quantified after 6 hours using the Promega BrightGLO luciferase system on a Tecan Infinity M1000 Pro plate reader.
FIG. 10 provides a bar graph depicting inhibition of BMP2-induced luciferase activity in 293T-BRE-reporter cells. Approximately 20,000 cells per well were plated in a 96-well plate and allowed to attach overnight. […] Cells were then stimulated with vehicle or 5 ng/ml BMP2 for 6 hours. Luciferase transactivation was assessed using the Promega BrightGLO luciferase system (Promega) and the signal was quantified using a plate reader (M1000 Pro).

[3] = Metabolic stability in mouse liver microsomes; type: in vitro ADME; conditions: some cells add hours in brackets
From the text: as §2

BMPR1A = molecular target: T2, BMPR1A (Homo sapiens, UniProt P36894); experiment: ThermoFisher Lantha kinase screen, BMPR1A; type: biochemical; conditions: in vitro
T2 construct: purchased ThermoFisher
From the text: (§3) FIGS. 3A-3B depict a representation of KINOMEscan (Eurofins) binding data of CDD-2342 across the human kinome phylogenetic tree (FIG. 3A) and ThermoFisher Lantha kinase screen (FIG. 3B). FIG. 3A: The size of the circles (indicated with lines) are correlated with the affinity of ligand binding (i.e., larger circle, greater binding affinity). […] FIG. 3B: Using the ThermoFisher Lantha kinase screening assay, kinase specificity for ACVR1>ACVRL1>>BMPR1A>BMPR1B was observed.
(§4) Additionally, CDD-2342 is a >1000-fold better inhibitor of ACVR1 than non-TGFβ family kinases (FIGS. 3A-3B).

BMPR1B = molecular target: T3, BMPR1B (Homo sapiens, UniProt O00238); experiment: ThermoFisher Lantha kinase screen, BMPR1B; type: biochemical; conditions: in vitro
T3 construct: purchased ThermoFisher
From the text: as §3, §4

human kinome = experiment: KINOMEscan (Eurofins) binding across the human kinome; conditions: tested at a dose of 1 μM
From the text: as §3

ACVR1 = molecular target: T4, ACVR1 (Homo sapiens, UniProt Q04771); experiment: ThermoFisher (Lantha) kinase assay, inhibition of ACVR1; type: biochemical
T4 construct: purchased ThermoFisher
T4 sequence (Q04771 21-509): T1 sequence (Q04771 21-509)

ACVRL1 [4] = molecular target: T5, ACVRL1 (Homo sapiens, UniProt P37023); experiment: ThermoFisher (Lantha) kinase assay, inhibition of ACVRL1; type: biochemical; conditions: in vitro, NA = not active at 1 μM
T5 construct: purchased ThermoFisher

ACVRL1 [5] = molecular target: T5, ACVRL1; experiment: Promega NanoBRET live-cell target engagement, ACVRL1; type: cell-based; conditions: in cellulo; NI = No inhibition at 40 μM
From the text: The Promega NanoBRET target engagement system involves cell-based competitive displacement of a fluorescent NanoBRET tracer bound reversibly to a NanoLuc fusion protein. Test compounds displace the tracer dependent on their affinity for the target and reduce loss of the NanoBRET signal.
Further, HEK29T cells with stable expression of a BMP reporter element driving luciferase expression can be used to test inhibition of BMP-induced luciferase transactivation. […] Additionally, utilizing the HEPG2 cell system described herein, responsiveness to activin and induction of Hepcidin (HAMP) gene expression can be probed in the presence and absence of ACVR1 inhibitors, as well as the influence of tacrolimus on activin-induced hepcidin gene expression.
Thus, the in cellulo assays described herein comprise a luciferase reporter cell line system.

ACVR1^R206H = molecular target: T6, ACVR1^R206H (Homo sapiens, UniProt Q04771, R206H); experiment: Promega NanoBRET live-cell target engagement, ACVR1 (R206H); type: cell-based; conditions: in cellulo; NI = No inhibition at 40 μM
T6 sequence (Q04771 21-509 R206H): T1 sequence (Q04771 21-509) with R186H
From the text: as §1

HepG2 cells = experiment: Cytotoxicity in HepG2 cells (Cell Titer GLO, cellular ATP); type: cell-based; conditions: 24 hours, concentrations up to 100 μM
[6] = Pharmacokinetic study in mice, oral gavage; conditions: mouse, in vivo, 50 mg/kg oral gavage, n = 4, mean ± SD
From the text: (§5) The present disclosure further provides exemplary pharmacokinetic data for compound CDD-2789.

[7] = system: pSMAD1/5 in FOP fibroblasts (FOP GM00513); experiment: BMP2-induced pSMAD1/5 Western blot in primary FOP fibroblasts; type: cell-based, human; conditions: 1, 5, 25 μM, 30 min pre-treatment, 5 ng/mL BMP2 45 min
Experimental: (§6) FIG. 11 depicts inhibition of phosphorylated SMAD1/5 (pSMAD1/5) in primary WT and FOP fibroblasts. […] Subsequently, the fibroblasts were treated with vehicle (i.e., DMSO) or 5 ng/mL BMP2 in the presence of the inhibitors for 45 minutes. Cell lysates were then probed with antibodies against pSMAD1/5, total SMAD5, total SMAD1, and GAPDH (i.e., loading control) using a Western blot.

[8] = system: pSMAD1/5 in WT fibroblasts (WT GM01652); experiment: BMP2-induced pSMAD1/5 Western blot in primary WT fibroblasts; type: cell-based, human; conditions: 1, 5, 25 μM, 30 min pre-treatment, 5 ng/mL BMP2 45 min
Experimental: as §6

[9] = Plasma ALT and AST levels in mice after treatment; type: in vivo; conditions: 24 h post-administration, individual mice No. 1-4
From the text: as §5

T5 sequence (P37023 22-503): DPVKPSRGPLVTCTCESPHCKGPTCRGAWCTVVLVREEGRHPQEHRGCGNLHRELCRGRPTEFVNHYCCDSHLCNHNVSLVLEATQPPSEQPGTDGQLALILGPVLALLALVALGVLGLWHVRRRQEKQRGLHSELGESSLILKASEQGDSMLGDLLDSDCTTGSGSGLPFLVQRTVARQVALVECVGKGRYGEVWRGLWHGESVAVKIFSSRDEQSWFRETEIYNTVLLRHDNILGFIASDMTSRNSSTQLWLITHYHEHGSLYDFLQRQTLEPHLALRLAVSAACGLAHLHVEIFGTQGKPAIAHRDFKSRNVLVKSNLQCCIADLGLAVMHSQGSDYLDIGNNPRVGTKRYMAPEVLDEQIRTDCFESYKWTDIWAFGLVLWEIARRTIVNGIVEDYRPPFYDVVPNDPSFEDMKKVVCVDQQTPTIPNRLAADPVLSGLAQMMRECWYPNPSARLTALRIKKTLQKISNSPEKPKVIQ
T3 sequence (O00238 14-502): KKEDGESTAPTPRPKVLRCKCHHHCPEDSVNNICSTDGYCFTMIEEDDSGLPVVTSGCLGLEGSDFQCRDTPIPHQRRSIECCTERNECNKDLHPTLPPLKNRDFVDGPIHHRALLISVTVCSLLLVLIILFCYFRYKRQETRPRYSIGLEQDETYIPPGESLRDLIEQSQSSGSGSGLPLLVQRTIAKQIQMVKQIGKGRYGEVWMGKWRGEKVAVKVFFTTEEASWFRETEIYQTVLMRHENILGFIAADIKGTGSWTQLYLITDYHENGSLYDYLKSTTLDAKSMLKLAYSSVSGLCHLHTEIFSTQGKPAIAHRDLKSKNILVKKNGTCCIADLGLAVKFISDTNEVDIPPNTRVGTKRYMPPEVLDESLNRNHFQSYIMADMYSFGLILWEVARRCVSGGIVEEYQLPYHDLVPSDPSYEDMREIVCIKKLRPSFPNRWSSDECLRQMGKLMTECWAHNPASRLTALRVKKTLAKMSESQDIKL
T2 sequence (P36894 24-532): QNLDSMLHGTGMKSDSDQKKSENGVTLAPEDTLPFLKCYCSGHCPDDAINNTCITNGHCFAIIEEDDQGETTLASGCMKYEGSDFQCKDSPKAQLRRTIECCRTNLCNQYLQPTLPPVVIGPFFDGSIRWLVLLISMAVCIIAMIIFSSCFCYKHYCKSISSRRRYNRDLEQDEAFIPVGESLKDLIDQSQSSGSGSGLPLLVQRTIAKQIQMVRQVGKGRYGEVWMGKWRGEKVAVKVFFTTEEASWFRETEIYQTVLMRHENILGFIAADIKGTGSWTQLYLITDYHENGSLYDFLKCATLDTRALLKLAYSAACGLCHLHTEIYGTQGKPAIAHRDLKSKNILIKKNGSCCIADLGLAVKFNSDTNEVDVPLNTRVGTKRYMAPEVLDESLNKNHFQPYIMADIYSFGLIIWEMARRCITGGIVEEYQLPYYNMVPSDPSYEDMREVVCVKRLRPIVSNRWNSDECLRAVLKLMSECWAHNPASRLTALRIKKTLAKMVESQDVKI

With `COc1cc(-c2nc3ccc(C(=O)NCCCN4CCN(c5cccc(C)c5C)CC4)cc3n2C2CCC2)cc(OC)c1OC` [CDD-2342, 1-cyclobutyl-N-(3-(4-(2,3-dimethylphenyl)piperazin-1-yl)propyl)-2-(3,4,5-trimethoxyphenyl)-1H-benzo[d]imidazole-6-carboxamide] the IC50 (ACVR1^WT) was 830 nM and 810 nM, the “Metabolism HLM” value [1] was 0.5 min and the “inhibition of BMP2-induced reporter activity” value ([2]; 1 μM, 5 μM, 10 μM) was “significantly inhibits”. The “Metabolism MLM” value [3] was 0 min, the IC50 (BMPR1A) was 257 nM and the IC50 (BMPR1B) was 687 nM. For the same compound, the “off-target binding across the human kinome” value (human kinome) was “minimal off-target binding”, the “fold better inhibitor of ACVR1 than non-TGFβ family kinases” value (ACVR1; FIGS. 3A-3B) was > 1000 fold and the IC50 (ACVR1; ThermoFisher Assay, in vitro) was 6.1 nM. For the same compound, the “kinase specificity (rank order)” value (ACVR1; ThermoFisher Lantha kinase screening assay, FIG. 3B) was “ACVR1>ACVRL1>>BMPR1A>BMPR1B”, the IC50 (ACVRL1 [4]) was 18.8 nM and the IC50 (ACVRL1 [5]) was 11.1 µM and 11.4 µM. For the same compound, the IC50 (ACVR1^R206H) was 1470 nM and 1480 nM.
In the case of `COc1cc(-c2nc3ccc(C(=O)NCCCN(C)C)cc3n2C2CCC2)cc(OC)c1OC` [CDD-2789, 1-cyclobutyl-N-(3-(dimethylamino)propyl)-2-(3,4,5-trimethoxyphenyl)-1H-benzo[d]imidazole-6-carboxamide], the “Metabolism HLM (Min)” value [1] is reported as 2767 (46.1 h) Min, the “inhibition of BMP2-induced luciferase activity” value ([2]; 0.2, 1, 5, 25 μM) is reported as “Potent inhibition” and the “Metabolism MLM (Min)” value [3] is reported as 505 (8.4 h) Min. The “cytotoxicity (cell viability, cellular ATP)” value (HepG2 cells) was “no cytotoxicity”, the half-life [6] was ~205 min and the “suppression of BMP2-induced pSMAD1/5 activation, FOP fibroblasts” value [7] was “suppressed”. The “suppression of BMP2-induced pSMAD1/5 activation, WT fibroblasts” value [8] was “suppressed”, the IC50 (ACVRL1 [4]) was 9.9 nM and the “Plasma ALT” value [9] was 21.83 IU/L and 165.48 IU/L and 25.81 IU/L and 23.60 IU/L. The “Plasma AST” value [9] was 30.76 IU/L and 141.26 IU/L and 42.08 IU/L and 55.52 IU/L.
